Reference: patent US20160185774A1, “Anti-Infective Compounds” (priority 2013, published 2016)
≈ marks a conversion by molar mass, not a printed value.

Tested on: M. tuberculosis
Assay: microbe, parasite or virus in culture
Assay type: cell-based
Details: Mycobacterium tuberculosis, 120 h; read-out: QUM (MIC80)

| Structure (SMILES) | MIC80 |
| --- | --- |
| CCc1nc2cc(Cl)ccn2c1C(=O)NCc1ccc2ncn(Cc3ccc(OC(F)(F)F)cc3)c2c1 [Compound 275] | > 20 µM |
| CCc1nc2cc(C)ccn2c1C(=O)NCc1ccc(N2CCN(c3ccc(C(F)(F)F)cc3)CC2)cc1 [Compound 61] | < 1 µM |
| CCc1nc2cc(C(F)(F)F)ccn2c1C(=O)NCc1ccc(N2CCC(c3ccc(OC)cc3)CC2)cc1 [Compound 124] | < 1 µM |
| CCc1nc2c(Cl)cccn2c1C(=O)NCc1ccc(N2CCC(c3ccccc3)CC2)cc1 [Compound 190] | < 1 µM |
| CCc1nc2cc(F)ccn2c1C(=O)NCc1ccc(N2CCN(c3ccc(Cl)cc3)CC2)cc1 [Compound 90] | < 1 µM |
| CCc1nc2cc(F)ccn2c1C(=O)NCc1ccc(N2CCC(c3ccc(OC)cc3)CC2)cc1 [Compound 14] | < 1 µM |
| CCc1nc2c(Cl)cccn2c1C(=O)NCc1ccc(N2CCN(c3ccc(F)cc3)CC2)cc1 [Compound 85] | < 1 µM |
| CCc1nc2cc(Cl)ccn2c1C(=O)NCc1ccc(N2CCN(c3ccc(C(F)(F)F)cc3)CC2)cc1 [Compound 204] | < 1 µM |
| Cc1nc2cc(Cl)ccn2c1C(=O)NCc1ccc(N2CCC(c3ccc(F)cc3)CC2)cc1 [Compound 297] | < 1 µM |
| CCc1nc2ccc(Cl)cn2c1C(=O)NCc1ccc(NC2C3CC4CC(C3)CC2C4)cc1 (centres unmarked) [Compound 323] | < 1 µM |
| CCc1nc2ccccn2c1C(=O)NCc1ccc(N2CCC(c3ccc(Cl)cc3)CC2)cc1 [Compound 139] | < 1 µM |
| CCc1nc2ccc(Cl)cn2c1C(=O)NCc1ccc(OCC23CC4CC(CC(C4)C2)C3)cc1 [Compound 319] | < 1 µM |
| CCc1nc2cc(Br)ccn2c1C(=O)NCc1ccc(N2CCN(c3ccc(Cl)cc3)CC2)cc1 [Compound 135] | < 1 µM |
| CCc1nc2c(C)cccn2c1C(=O)NCc1ccc(N2CCN(c3ccc(Cl)cc3)CC2)cc1 [Compound 43] | < 1 µM |
| CCc1nc2cc(C)ccn2c1C(=O)NCc1ccc(N2CCC(c3ccc(Cl)cc3)CC2)cc1 [Compound 52] | < 1 µM |
| CCc1nc2ccccn2c1C(=O)NCc1ccc(N2CCN(c3ccc(C(F)(F)F)cc3)CC2)cc1 [Compound 29] | < 1 µM |
| CCc1nc2ccc(Cl)cn2c1C(=O)NCc1ccc(N2CCC(C)(O)CC2)cc1 [Compound 237] | < 1 µM |
| Cc1ccc(C2CCN(c3ccc(CNC(=O)c4c(C)nc5c(F)cccn45)cc3)CC2)cc1 [Compound 309] | < 1 µM |
| CCc1nc2c(C)cccn2c1C(=O)NCc1ccc(N2CCC(c3ccc(C)cc3)CC2)cc1 [Compound 144] | < 1 µM |

| Structure (SMILES) | MIC80 |
| --- | --- |
| CCc1nc2cc(OC)ccn2c1C(=O)NCc1ccc(N2CCC(c3ccccc3)CC2)cc1 [Compound 18] | < 1 µM |
| CCc1nc2c(F)cccn2c1C(=O)NCc1ccc(N2CCN(c3ccc(C)cc3)CC2)cc1 [Compound 31] | < 1 µM |
| CCc1nc2c(F)cccn2c1C(=O)NCc1ccc(N2CCC(c3ccc(C(F)(F)F)cc3)CC2)cc1 [Compound 12] | < 1 µM |
| CCc1nc2ccc(C(F)(F)F)cn2c1C(=O)NCc1ccc(N2CCN(c3ccc(OC)cc3)CC2)cc1 [Compound 109] | < 1 µM |
| Cc1nc2ccc(Cl)cn2c1C(=O)NCc1ccc(N2CCC(c3ccc(OC(F)(F)F)cc3)CC2)cc1 [Compound 328] | < 1 µM |
| CCc1nc2ccc(Cl)cn2c1C(=O)NCc1ccc(N2CCC(C(=O)OCCN3CCOCC3)CC2)cc1 [Compound 336] | < 1 µM |
| CCc1nc2cc(F)ccn2c1C(=O)NCc1ccc(N2CCN(c3ccc(OC(F)(F)F)cc3)CC2)cc1 [Compound 116] | < 1 µM |
| CCc1nc2c(OC)cccn2c1C(=O)NCc1ccc(N2CCC(c3ccc(C)cc3)CC2)cc1 [Compound 215] | 1 to 20 µM (≈ 0.483 to 9.65 µg/mL) |
| CCc1nc2ccc(Cl)cn2c1C(=O)NCc1ccc(N2CCN(c3ccc(Cl)cc3)CC2)cc1 [Compound 45] | < 1 µM |
| CCc1nc2cc(F)ccn2c1C(=O)NCc1ccc(N2CCC(c3ccc(C)cc3)CC2)cc1 [Compound 5] | < 1 µM |
| CCc1nc2c(Br)cccn2c1C(=O)NCc1ccc(N2CCN(c3ccc(OC(F)(F)F)cc3)CC2)cc1 [Compound 94] | < 1 µM |
| CCc1nc2cc(Br)ccn2c1C(=O)NCc1ccc(N2CCC(c3ccccc3)CC2)cc1 [Compound 113] | < 1 µM |
| CCc1nc2cc(C(F)(F)F)ccn2c1C(=O)NCc1ccc(N2CCN(c3ccc(C(F)(F)F)cc3)CC2)cc1 [Compound 206] | < 1 µM |
| CCc1nc2ccc(Cl)cn2c1C(=O)NCc1ccc(N2CCC(c3ccc(C(F)(F)F)cc3)CC2)cc1 [Compound 158] | < 1 µM |
| CCc1nc2ccccn2c1C(=O)NCc1ccc(N2CCN(c3ccc(OC)cc3)CC2)cc1 [Compound 30] | < 1 µM |
| CCc1nc2ccc(C)cn2c1C(=O)NCc1ccc(N2CCC(c3ccc(OC(F)(F)F)cc3)CC2)cc1 [Compound 174] | < 1 µM |
| CCc1nc2ccccn2c1C(=O)NCc1ccc(N2CCC(c3ccc(OC)cc3)CC2)cc1 [Compound 180] | < 1 µM |
| CCc1nc2ccc(Br)cn2c1C(=O)NCc1ccc(N2CCN(c3ccc(C(F)(F)F)cc3)CC2)cc1 [Compound 156] | < 1 µM |
| CCc1nc2c(Br)cccn2c1C(=O)NCc1ccc(N2CCN(c3ccc(Cl)cc3)CC2)cc1 [Compound 199] | < 1 µM |
